PMC5564600 (Oncotarget, 2017)

Legend:
Assay in all cases: biochemical
Assay type in all cases: binding
panel of 442 kinases [1] = target: T1, panel of 442 kinases (Homo sapiens, UniProt Q9HBH9); conditions: kinase MKNK2; for remaining activity at 1 µM: read-out: % of control at 1 µM
T1 construct: purchased Ambit Biosciences (scanMAXX KINOMEscan)

panel of 442 kinases [2] = target: T2, panel of 442 kinases (Homo sapiens, UniProt Q9UM73); conditions: ALK; for remaining activity at 1 µM: read-out: % of control at 1 µM
T2 construct: purchased Ambit Biosciences (scanMAXX KINOMEscan)

panel of 442 kinases [3] = target: T3, panel of 442 kinases (Homo sapiens, UniProt Q9BZL6); conditions: kinase PRKD2; for remaining activity at 1 µM: read-out: PRKD2 (% of control at 1 µM)
T3 construct: purchased Ambit Biosciences (scanMAXX KINOMEscan)
T3 sequence (Q9BZL6 1-878): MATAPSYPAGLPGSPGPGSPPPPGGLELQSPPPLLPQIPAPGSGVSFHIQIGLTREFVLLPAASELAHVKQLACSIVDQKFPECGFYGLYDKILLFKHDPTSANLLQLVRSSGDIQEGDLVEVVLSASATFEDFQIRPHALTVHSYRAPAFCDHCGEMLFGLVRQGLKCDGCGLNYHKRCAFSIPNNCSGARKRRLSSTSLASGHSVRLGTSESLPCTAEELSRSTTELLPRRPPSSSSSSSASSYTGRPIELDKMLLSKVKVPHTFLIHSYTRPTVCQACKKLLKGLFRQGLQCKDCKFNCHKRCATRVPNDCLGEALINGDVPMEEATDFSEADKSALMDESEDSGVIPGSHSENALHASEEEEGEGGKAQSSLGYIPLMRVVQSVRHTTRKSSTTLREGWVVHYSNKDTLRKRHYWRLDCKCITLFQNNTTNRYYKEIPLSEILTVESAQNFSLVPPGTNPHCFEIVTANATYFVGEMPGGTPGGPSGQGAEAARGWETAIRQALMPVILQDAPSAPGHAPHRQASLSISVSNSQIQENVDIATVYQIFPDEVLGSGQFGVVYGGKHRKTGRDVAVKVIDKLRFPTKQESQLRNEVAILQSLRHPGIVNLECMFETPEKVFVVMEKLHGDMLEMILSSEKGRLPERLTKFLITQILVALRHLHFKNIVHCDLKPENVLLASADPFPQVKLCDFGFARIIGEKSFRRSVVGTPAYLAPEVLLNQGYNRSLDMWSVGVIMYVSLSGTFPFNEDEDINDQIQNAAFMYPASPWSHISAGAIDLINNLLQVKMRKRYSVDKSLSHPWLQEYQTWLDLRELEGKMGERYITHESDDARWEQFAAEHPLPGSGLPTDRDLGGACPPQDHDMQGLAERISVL

panel of 442 kinases [4] = target: T4, panel of 442 kinases (Homo sapiens, UniProt Q86YV6); conditions: kinase MYLK4; for remaining activity at 1 µM: read-out: % of control at 1 µM
T4 construct: purchased Ambit Biosciences (scanMAXX KINOMEscan)
T4 sequence (Q86YV6 1-388): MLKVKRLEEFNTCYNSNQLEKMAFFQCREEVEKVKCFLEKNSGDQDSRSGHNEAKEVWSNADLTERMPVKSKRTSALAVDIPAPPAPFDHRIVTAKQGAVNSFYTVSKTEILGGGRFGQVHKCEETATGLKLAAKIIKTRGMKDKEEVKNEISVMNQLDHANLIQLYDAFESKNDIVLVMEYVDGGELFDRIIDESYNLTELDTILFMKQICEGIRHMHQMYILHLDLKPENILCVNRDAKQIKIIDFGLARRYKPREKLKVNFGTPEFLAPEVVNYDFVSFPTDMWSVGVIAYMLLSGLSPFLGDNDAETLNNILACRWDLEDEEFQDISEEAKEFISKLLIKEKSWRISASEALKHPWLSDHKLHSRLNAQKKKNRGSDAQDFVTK

panel of 442 kinases [5] = target: T5, panel of 442 kinases (Homo sapiens, UniProt Q13237); conditions: kinase PRKG2; for remaining activity at 1 µM: read-out: PRKG2 (% of control at 1 µM)
T5 construct: purchased Ambit Biosciences (scanMAXX KINOMEscan)
T5 sequence (Q13237 1-762): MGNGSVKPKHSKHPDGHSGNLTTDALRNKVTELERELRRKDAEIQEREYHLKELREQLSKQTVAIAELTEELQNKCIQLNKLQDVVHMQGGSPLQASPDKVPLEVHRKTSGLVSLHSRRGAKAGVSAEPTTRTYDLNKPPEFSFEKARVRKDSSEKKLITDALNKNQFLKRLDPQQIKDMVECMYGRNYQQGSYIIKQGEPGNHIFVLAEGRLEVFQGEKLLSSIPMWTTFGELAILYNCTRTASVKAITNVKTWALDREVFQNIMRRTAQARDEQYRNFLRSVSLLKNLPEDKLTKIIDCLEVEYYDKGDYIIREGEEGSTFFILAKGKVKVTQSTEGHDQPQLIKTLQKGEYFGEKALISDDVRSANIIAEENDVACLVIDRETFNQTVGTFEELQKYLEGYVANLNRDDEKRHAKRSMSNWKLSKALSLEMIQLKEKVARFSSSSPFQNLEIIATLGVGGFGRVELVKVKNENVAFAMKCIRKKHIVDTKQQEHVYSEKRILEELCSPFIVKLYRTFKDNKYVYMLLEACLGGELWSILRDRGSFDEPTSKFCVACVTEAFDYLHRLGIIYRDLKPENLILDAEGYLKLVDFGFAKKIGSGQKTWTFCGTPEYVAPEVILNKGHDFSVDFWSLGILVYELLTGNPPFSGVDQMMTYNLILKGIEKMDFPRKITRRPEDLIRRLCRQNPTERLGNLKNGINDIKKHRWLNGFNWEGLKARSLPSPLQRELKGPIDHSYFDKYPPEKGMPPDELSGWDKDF

panel of 442 kinases [6] = target: T6, panel of 442 kinases (Homo sapiens, UniProt P32298); conditions: kinase GRK4; for remaining activity at 1 µM: read-out: % of control at 1 µM
T6 construct: purchased Ambit Biosciences (scanMAXX KINOMEscan)

panel of 442 kinases [7] = target: T7, panel of 442 kinases (Homo sapiens, UniProt Q9P0L2); conditions: kinase MARK1; for remaining activity at 1 µM: read-out: % of control at 1 µM
T7 construct: purchased Ambit Biosciences (scanMAXX KINOMEscan)

panel of 442 kinases [8] = target: T8, panel of 442 kinases (Homo sapiens, UniProt P24941); conditions: CDK2; for remaining activity at 1 µM: read-out: % of control at 1 µM
T8 construct: purchased Ambit Biosciences (scanMAXX KINOMEscan)

panel of 442 kinases [9] = target: T9, panel of 442 kinases (Homo sapiens, UniProt P48736); conditions: kinase PIK3CG; 1 µM; read-out: % of control at 1 µM
T9 construct: purchased Ambit Biosciences (scanMAXX KINOMEscan)

[10] = 10 µM, read-out: % of control at 10 µM

T7 sequence (Q9P0L2 whole entry): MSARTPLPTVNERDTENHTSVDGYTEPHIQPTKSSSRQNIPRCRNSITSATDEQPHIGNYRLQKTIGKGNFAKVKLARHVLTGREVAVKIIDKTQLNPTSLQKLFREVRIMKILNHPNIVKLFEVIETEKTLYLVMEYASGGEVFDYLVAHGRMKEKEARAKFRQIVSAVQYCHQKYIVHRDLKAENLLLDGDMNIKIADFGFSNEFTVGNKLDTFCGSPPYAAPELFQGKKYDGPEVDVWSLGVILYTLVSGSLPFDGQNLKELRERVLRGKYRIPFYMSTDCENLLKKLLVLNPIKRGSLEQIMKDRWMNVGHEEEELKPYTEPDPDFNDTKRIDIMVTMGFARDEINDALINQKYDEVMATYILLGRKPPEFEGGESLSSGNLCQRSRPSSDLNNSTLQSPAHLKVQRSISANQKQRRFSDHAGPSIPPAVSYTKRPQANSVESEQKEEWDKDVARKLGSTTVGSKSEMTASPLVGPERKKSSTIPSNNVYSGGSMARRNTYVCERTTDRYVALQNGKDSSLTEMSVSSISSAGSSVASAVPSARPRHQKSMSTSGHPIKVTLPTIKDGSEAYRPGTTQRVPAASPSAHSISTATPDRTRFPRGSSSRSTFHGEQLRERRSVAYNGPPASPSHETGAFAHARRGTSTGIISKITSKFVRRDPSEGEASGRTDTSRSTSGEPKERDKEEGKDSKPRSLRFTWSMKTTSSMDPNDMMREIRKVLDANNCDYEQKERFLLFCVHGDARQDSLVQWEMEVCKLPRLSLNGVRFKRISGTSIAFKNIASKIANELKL
T9 sequence (P48736 whole entry): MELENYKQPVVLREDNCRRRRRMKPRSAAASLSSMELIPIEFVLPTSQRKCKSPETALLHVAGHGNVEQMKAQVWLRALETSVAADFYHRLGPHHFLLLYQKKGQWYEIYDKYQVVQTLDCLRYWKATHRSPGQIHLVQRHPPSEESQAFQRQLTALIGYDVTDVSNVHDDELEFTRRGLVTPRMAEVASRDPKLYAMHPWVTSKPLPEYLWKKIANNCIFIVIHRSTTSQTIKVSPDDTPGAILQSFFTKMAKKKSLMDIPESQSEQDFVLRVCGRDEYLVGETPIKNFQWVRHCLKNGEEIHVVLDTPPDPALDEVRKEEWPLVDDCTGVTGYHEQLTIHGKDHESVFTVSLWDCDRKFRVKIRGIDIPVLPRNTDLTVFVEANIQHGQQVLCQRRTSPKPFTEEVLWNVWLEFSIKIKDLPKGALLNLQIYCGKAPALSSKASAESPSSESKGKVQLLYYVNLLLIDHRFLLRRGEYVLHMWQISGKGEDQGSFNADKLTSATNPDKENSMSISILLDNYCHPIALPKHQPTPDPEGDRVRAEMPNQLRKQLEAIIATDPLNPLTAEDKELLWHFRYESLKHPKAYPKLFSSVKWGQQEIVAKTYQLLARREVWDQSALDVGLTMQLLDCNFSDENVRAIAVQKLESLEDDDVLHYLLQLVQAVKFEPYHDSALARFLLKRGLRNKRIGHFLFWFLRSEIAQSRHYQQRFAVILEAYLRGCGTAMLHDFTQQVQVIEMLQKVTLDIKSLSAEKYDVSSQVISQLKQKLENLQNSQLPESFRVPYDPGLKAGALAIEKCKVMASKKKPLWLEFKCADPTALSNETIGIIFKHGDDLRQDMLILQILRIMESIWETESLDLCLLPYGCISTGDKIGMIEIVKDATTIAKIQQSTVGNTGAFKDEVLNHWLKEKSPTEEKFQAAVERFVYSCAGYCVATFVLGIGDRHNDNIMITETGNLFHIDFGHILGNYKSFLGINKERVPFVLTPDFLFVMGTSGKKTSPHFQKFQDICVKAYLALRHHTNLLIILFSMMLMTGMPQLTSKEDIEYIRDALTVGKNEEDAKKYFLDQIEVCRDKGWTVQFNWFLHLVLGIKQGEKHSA
T6 sequence (P32298 whole entry): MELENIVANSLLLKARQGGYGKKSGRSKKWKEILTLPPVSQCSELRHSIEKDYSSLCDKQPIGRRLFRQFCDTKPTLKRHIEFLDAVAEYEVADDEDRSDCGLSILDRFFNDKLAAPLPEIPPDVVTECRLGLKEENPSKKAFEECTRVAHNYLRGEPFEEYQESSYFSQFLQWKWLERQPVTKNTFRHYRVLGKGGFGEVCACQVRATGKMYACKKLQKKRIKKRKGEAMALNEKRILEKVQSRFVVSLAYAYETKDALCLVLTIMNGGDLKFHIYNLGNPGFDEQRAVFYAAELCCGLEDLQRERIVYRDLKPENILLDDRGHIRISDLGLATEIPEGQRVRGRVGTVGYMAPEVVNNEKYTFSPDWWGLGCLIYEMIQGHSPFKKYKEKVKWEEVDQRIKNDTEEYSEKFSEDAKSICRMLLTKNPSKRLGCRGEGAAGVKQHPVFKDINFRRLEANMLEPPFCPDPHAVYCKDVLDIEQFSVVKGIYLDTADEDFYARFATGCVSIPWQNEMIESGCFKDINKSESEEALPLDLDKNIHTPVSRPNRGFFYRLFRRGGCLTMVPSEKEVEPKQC
T2 sequence (Q9UM73 19-1620): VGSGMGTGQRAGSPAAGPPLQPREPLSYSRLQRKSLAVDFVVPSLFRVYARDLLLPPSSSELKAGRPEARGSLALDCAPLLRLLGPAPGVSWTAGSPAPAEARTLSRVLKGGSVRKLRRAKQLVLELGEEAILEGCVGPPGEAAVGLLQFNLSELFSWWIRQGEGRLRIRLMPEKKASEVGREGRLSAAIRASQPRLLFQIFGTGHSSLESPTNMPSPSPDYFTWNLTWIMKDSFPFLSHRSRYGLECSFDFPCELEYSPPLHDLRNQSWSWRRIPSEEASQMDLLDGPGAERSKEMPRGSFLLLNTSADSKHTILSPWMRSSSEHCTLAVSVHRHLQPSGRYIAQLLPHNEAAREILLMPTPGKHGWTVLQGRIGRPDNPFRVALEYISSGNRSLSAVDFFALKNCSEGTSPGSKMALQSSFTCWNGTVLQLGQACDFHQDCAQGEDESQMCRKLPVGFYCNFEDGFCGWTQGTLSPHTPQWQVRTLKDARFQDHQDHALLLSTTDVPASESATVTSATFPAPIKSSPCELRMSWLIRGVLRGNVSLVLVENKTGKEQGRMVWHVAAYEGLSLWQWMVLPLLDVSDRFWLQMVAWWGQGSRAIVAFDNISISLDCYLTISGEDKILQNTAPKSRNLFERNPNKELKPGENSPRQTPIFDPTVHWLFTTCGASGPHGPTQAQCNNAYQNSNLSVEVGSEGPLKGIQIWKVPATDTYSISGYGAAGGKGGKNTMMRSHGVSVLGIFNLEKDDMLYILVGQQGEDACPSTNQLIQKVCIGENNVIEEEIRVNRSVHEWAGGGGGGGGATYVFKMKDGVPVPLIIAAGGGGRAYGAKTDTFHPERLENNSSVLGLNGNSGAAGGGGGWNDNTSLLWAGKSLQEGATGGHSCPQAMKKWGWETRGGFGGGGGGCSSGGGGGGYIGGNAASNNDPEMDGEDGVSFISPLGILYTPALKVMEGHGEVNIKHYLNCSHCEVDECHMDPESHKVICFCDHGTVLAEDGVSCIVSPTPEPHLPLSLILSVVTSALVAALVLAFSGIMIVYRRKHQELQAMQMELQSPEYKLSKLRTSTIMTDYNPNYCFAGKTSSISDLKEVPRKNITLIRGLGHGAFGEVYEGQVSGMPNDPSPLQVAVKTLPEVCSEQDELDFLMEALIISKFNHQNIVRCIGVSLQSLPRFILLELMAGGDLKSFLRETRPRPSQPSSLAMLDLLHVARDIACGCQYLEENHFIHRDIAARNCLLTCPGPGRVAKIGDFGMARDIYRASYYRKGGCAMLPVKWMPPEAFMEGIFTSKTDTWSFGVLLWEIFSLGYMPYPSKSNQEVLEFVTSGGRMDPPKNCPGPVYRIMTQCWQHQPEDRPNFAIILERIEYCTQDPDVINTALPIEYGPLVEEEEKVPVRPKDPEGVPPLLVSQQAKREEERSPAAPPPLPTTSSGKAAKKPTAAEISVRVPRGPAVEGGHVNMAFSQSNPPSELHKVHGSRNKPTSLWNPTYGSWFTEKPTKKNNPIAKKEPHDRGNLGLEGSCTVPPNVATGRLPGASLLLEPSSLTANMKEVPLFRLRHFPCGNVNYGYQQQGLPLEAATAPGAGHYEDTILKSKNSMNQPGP
T1 sequence (Q9HBH9 whole entry): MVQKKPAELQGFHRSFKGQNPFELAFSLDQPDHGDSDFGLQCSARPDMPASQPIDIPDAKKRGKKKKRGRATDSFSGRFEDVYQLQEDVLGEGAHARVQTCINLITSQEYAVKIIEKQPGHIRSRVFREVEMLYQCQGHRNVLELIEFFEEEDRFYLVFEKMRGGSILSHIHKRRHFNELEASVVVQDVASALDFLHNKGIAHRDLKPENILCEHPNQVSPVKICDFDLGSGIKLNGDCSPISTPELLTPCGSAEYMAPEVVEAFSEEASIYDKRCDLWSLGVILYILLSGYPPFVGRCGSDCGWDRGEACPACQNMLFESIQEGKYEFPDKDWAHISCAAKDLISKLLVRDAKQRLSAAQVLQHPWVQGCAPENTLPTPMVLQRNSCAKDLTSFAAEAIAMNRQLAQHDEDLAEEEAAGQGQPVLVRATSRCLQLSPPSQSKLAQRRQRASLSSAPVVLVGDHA

| Compound | remaining activity at 1 µM (panel of 442 kinases [1]) [%] | remaining activity at 10 µM (panel of 442 kinases [1]; [10]) [%] | remaining activity at 1 µM (panel of 442 kinases [2]) [%] | remaining activity at 10 µM (panel of 442 kinases [2]; [10]) [%] | remaining activity at 1 µM (panel of 442 kinases [3]) [%] | remaining activity at 10 µM (panel of 442 kinases [3]; 10 µM, read-out: PRKD2 (% of control at 10 µM)) [%] | remaining activity at 1 µM (panel of 442 kinases [4]) [%] | remaining activity at 10 µM (panel of 442 kinases [4]; [10]) [%] | remaining activity at 1 µM (panel of 442 kinases [5]) [%] | remaining activity at 10 µM (panel of 442 kinases [5]; 10 µM, read-out: PRKG2 (% of control at 10 µM)) [%] | remaining activity at 1 µM (panel of 442 kinases [6]) [%] | remaining activity at 10 µM (panel of 442 kinases [6]; [10]) [%] | remaining activity at 1 µM (panel of 442 kinases [7]) [%] | remaining activity at 10 µM (panel of 442 kinases [7]; [10]) [%] | remaining activity at 1 µM (panel of 442 kinases [8]) [%] | remaining activity at 10 µM (panel of 442 kinases [8]; [10]) [%] | remaining activity at 1 µM (panel of 442 kinases [9]) [%] |
| --- | --- | --- | --- | --- | --- | --- | --- | --- | --- | --- | --- | --- | --- | --- | --- | --- | --- |
| Nc1cc(C(F)(F)F)c(-c2cc(N3CCOCC3)nc(N3CCOCC3)n2)cn1 [Buparlisib] | 90 | 80 | 100 | 100 | 100 | 100 | 100 | 100 | 93 | 100 | 100 | 100 | 100 | 100 | 84 | 100 | – |
| Cn1c(=O)n(-c2ccc(C(C)(C)C#N)cc2)c2c3cc(-c4cnc5ccccc5c4)ccc3ncc21 [Dactolisib, 2-methyl-2-[4-(3-methyl-2-oxo-8-quinolin-3-yl-2,3-dihydroimidazo[4,5-c]quinolin-1-yl)-phenyl] propionitrile] | 100 | – | 72 | – | 93 | – | 95 | – | 84 | – | 97 | – | 82 | – | 78 | – | 38 |
| COc1ncc(-c2ccc3nccc(-c4ccnnc4)c3c2)cc1NS(=O)(=O)c1ccc(F)cc1F [Omipalisib] | 98 | – | 100 | – | 100 | – | 84 | – | 96 | – | 100 | – | 100 | – | 100 | – | 0 |
| FC(F)c1nc2ccccc2n1-c1nc(N2CCOCC2)nc(N2CCOCC2)n1 [ZSTK474, 2-(difluoromethyl)-1-[4,6-di(4-morpholinyl)-1,3,5-triazin-2-yl]-1H-benzimidazole] | 100 | – | 93 | – | 93 | – | 100 | – | 95 | – | 100 | – | 98 | – | 74 | – | 0 |
